Measured values as given in patent US4062731A, “Production of uricase from micrococcus luteus” (Eastman Kodak Company, priority 1976, dated 1977).

Target: uricase from Micrococcus luteus NRRL B-8166
Experiment: Spectrophotometric uricase assay (disappearance of uric acid at 290 nm)
Assay type: biochemical
Settings: assay in 50 mM KPi buffer pH 8.6, 30° C; read-out: inhibition constant for oxonate
Experimental: Uricase was assayed spectrophotometrically by following the disappearance of uric acid at 290 nm using a modification of the procedure described by Mahler et. al, J. Biol. Chem., p. 625, 216 (1955). Assay tubes contained 2.7 ml 50 mM KPi buffer pH 8.6, 0.1 mM sodium EDTA, 0.05 ml 6 mM urate, plus enzyme and water to give a final volume of 3.0 ml. Changes or additions to the assay mixtures were made when necessary. Tubes were incubated for 5 minutes at 30° C; the reaction was started by adding enzyme. Molar extinction coefficient for uric acid at 290 nm is 12,300. Activity was expressed in units of uricase activity, where a unit is that amount of enzyme which catalyzes the oxidation of one μmole of uric acid per minute at 30° C and pH 8.6.

Which Ki does the source give for `O=C(O)c1nc(=O)[nH]c(=O)[nH]1` [oxonate] here?
Its Ki is 4.5 µM.
